For experiment [1], the target named is T1, DNA polymerase beta (Rattus norvegicus, UniProt P06766). Briefly: Inhibition of rat DNA polymerase beta in absence of BSA.
Experiment [2] concerns the target DNA polymerase beta (Rattus norvegicus) (UniProt P06766). Kind of experiment: Inhibition of rat DNA polymerase beta at 10 ug/mL.
Experiment [3] addresses T1, DNA polymerase beta. Kind of experiment: Inhibition of rat DNA polymerase beta in presence of BSA.
For experiment [4], the target named is DNA polymerase beta (Rattus norvegicus) (UniProt P06766). Briefly: Inhibition of rat DNA polymerase beta at 50 ug/mL.

As a reminder, the IC50 is the midpoint of a concentration-inhibition curve. As a reminder, the inhibition is the drop in the measured response relative to a control, in per cent. Read a high inhibition as a response far below the control. With `CC1(C)CC[C@]2(C(=O)O)CC[C@]3(C)C(=CC[C@@H]4[C@@]5(C)CC[C@H](O)C(C)(C)[C@@H]5CC[C@]43C)[C@@H]2C1` [OLEANOLIC_ACID], the half-inhibitory concentration (IC50) against DNA polymerase beta [1] turned out to be 3.7 µM; on DNA polymerase beta [3], 7.5 µM. The inhibition was found to be 42% in experiment [2] and 90% in experiment [4].
For `C=C1CC[C@]2(C(=O)O)CC[C@]3(C)[C@H](CC[C@@H]4[C@@]5(C)CC[C@H](O)C(C)(C)[C@@H]5CC[C@]43C)C2=C1C`, the IC50 on DNA polymerase beta [1] is 2.5 µM; on DNA polymerase beta [3], 5.6 µM. In addition, the inhibition in experiment [2] worked out at 68%; in experiment [4], 82%.
On the same counts, the results for `C=C1[C@H]2C3=CC[C@@H]4[C@@]5(C)CC[C@H](O)C(C)(C)[C@@H]5CC[C@@]4(C)[C@]3(C)CC[C@@]2(C(=O)O)CC[C@H]1C` are 3.2 µM, 5.3 µM, 65% and 80%.
`C[C@H]1[C@H](C)CC[C@]2(C(=O)O)CC[C@]3(C)C(=CC[C@@H]4[C@@]5(C)CC[C@H](O)C(C)(C)[C@@H]5CC[C@]43C)[C@H]12` [URSOLIC ACID]: the IC50 against DNA polymerase beta [1] worked out at 4.8 µM; on DNA polymerase beta [3], 8.5 µM. Further, the inhibition in experiment [2] turned out to be 55%; in experiment [4], 90%.
